Reference: PubChem BioAssay (NCI)
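Method: 48-hour compound exposure of cells in 96-well plates, five concentrations, linear interpolation of endpoints. TGI marks complete inhibition of growth.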

What was measured:
Assay in all cases: NCI tumour cell line growth inhibition, 48 h
OVCAR-3 ovarian = test system: OVCAR-3 ovarian
K-562 leukemia = test system: K-562 leukemia
SR leukemia = test system: SR leukemia
UO-31 renal = test system: UO-31 renal
CCRF-CEM leukemia = test system: CCRF-CEM leukemia
SNB-75 CNS = test system: SNB-75 CNS
OVCAR-5 ovarian = test system: OVCAR-5 ovarian
MOLT-4 leukemia = test system: MOLT-4 leukemia
HCT-116 colon = test system: HCT-116 colon
A498 renal = test system: A498 renal
RXF-631 renal = test system: RXF-631 renal
SNB-78 CNS = test system: SNB-78 CNS
SK-MEL-28 melanoma = test system: SK-MEL-28 melanoma
LOX IMVI melanoma = test system: LOX IMVI melanoma
OVCAR-4 ovarian = test system: OVCAR-4 ovarian
M19-MEL melanoma = test system: M19-MEL melanoma
CAKI-1 renal = test system: CAKI-1 renal
SF-268 CNS = test system: SF-268 CNS
XF 498 CNS = test system: XF 498 CNS
HL-60(TB) leukemia = test system: HL-60(TB) leukemia
SK-OV-3 ovarian = test system: SK-OV-3 ovarian
786-0 renal = test system: 786-0 renal
DMS 273 small cell lung = test system: DMS 273 small cell lung
UACC-62 melanoma = test system: UACC-62 melanoma
SNB-19 CNS = test system: SNB-19 CNS
HOP-62 NSCLC = test system: HOP-62 NSCLC
SK-MEL-5 melanoma = test system: SK-MEL-5 melanoma
EKVX NSCLC = test system: EKVX NSCLC
IGROV1 ovarian = test system: IGROV1 ovarian
SK-MEL-2 melanoma = test system: SK-MEL-2 melanoma
MALME-3M melanoma = test system: MALME-3M melanoma
RXF 393 renal = test system: RXF 393 renal
LXFL 529 NSCLC = test system: LXFL 529 NSCLC
NCI-H23 lung = test system: NCI-H23 lung
RPMI-8226 leukemia = test system: RPMI-8226 leukemia
NCI-H460 lung = test system: NCI-H460 lung
HT29 colon = test system: HT29 colon
ACHN renal = test system: ACHN renal
NCI-H226 lung = test system: NCI-H226 lung
HOP-92 NSCLC = test system: HOP-92 NSCLC
HCT-15 colon = test system: HCT-15 colon
SN12C renal = test system: SN12C renal
DMS 114 small cell lung = test system: DMS 114 small cell lung
U251 CNS = test system: U251 CNS
SF-295 CNS = test system: SF-295 CNS
A549 NSCLC = test system: A549 NSCLC
NCI-H522 lung = test system: NCI-H522 lung
SF-539 CNS = test system: SF-539 CNS
COLO 205 colon = test system: COLO 205 colon
M14 melanoma = test system: M14 melanoma
TK-10 renal = test system: TK-10 renal
KM20L2 colon = test system: KM20L2 colon
SW-620 colon = test system: SW-620 colon
OVCAR-8 ovarian = test system: OVCAR-8 ovarian
HCC-2998 colon = test system: HCC-2998 colon
UACC-257 melanoma = test system: UACC-257 melanoma
KM12 colon = test system: KM12 colon
HOP-18 NSCLC = test system: HOP-18 NSCLC
MCF7 breast = test system: MCF7 breast
P388 leukemia = test system: P388 leukemia
SN12K1 renal = test system: SN12K1 renal
DLD-1 colon = test system: DLD-1 colon
P388/ADR leukemia = test system: P388/ADR leukemia
NCI/ADR-RES ovarian = test system: NCI/ADR-RES ovarian

SMILES: Cc1c(C(=O)CC(=O)C(=O)NC2C3CC4CC(C3)CC2C4)[n+](=O)c2ccccc2n1[O-] (stereo not given)
- TGI (OVCAR-3 ovarian): 85.1 µM
- TGI (K-562 leukemia): > 100 µM
- TGI (SR leukemia): > 100 µM
- TGI (UO-31 renal): > 100 µM
- TGI (CCRF-CEM leukemia): > 100 µM
- TGI (SNB-75 CNS): > 100 µM
- TGI (OVCAR-5 ovarian): > 100 µM
- TGI (MOLT-4 leukemia): > 100 µM
- TGI (HCT-116 colon): > 100 µM
- TGI (A498 renal): > 100 µM
- TGI (RXF-631 renal): > 100 µM
- TGI (SNB-78 CNS): > 100 µM
- TGI (SK-MEL-28 melanoma): > 100 µM
- TGI (LOX IMVI melanoma): > 100 µM
- TGI (OVCAR-4 ovarian): > 100 µM
- TGI (M19-MEL melanoma): > 100 µM
- TGI (CAKI-1 renal): > 100 µM
- TGI (SF-268 CNS): > 100 µM
- TGI (XF 498 CNS): > 100 µM
- TGI (HL-60(TB) leukemia): > 100 µM
- TGI (SK-OV-3 ovarian): > 100 µM
- TGI (786-0 renal): > 100 µM
- TGI (DMS 273 small cell lung): > 100 µM
- TGI (UACC-62 melanoma): > 100 µM
- TGI (SNB-19 CNS): > 100 µM
- TGI (HOP-62 NSCLC): > 100 µM
- TGI (SK-MEL-5 melanoma): > 100 µM
- TGI (EKVX NSCLC): > 100 µM
- TGI (IGROV1 ovarian): > 100 µM
- TGI (SK-MEL-2 melanoma): > 100 µM
- TGI (MALME-3M melanoma): > 100 µM
- TGI (RXF 393 renal): > 100 µM
- TGI (LXFL 529 NSCLC): > 100 µM
- TGI (NCI-H23 lung): > 100 µM
- TGI (RPMI-8226 leukemia): > 100 µM
- TGI (NCI-H460 lung): > 100 µM
- TGI (HT29 colon): > 100 µM
- TGI (ACHN renal): > 100 µM
- TGI (NCI-H226 lung): > 100 µM
- TGI (HOP-92 NSCLC): > 100 µM
- TGI (HCT-15 colon): > 100 µM
- TGI (SN12C renal): > 100 µM
- TGI (DMS 114 small cell lung): > 100 µM
- TGI (U251 CNS): > 100 µM
- TGI (SF-295 CNS): > 100 µM
- TGI (A549 NSCLC): > 100 µM
- TGI (NCI-H522 lung): > 100 µM
- TGI (SF-539 CNS): > 100 µM
- TGI (COLO 205 colon): > 100 µM
- TGI (M14 melanoma): > 100 µM
- TGI (TK-10 renal): > 100 µM
- TGI (KM20L2 colon): > 100 µM
- TGI (SW-620 colon): > 100 µM
- TGI (OVCAR-8 ovarian): > 100 µM
- TGI (HCC-2998 colon): > 100 µM
- TGI (UACC-257 melanoma): > 100 µM
- TGI (KM12 colon): > 100 µM
- TGI (HOP-18 NSCLC): > 100 µM

SMILES: CC(NCCS(=O)(=O)O)C(=O)O (stereo not given)
- TGI (OVCAR-3 ovarian): > 69.4 µM
- TGI (K-562 leukemia): > 100 µM
- TGI (UO-31 renal): > 100 µM
- TGI (CCRF-CEM leukemia): > 100 µM
- TGI (MCF7 breast): > 100 µM
- TGI (SNB-75 CNS): > 100 µM
- TGI (OVCAR-5 ovarian): > 100 µM
- TGI (MOLT-4 leukemia): > 100 µM
- TGI (P388 leukemia): > 100 µM
- TGI (HCT-116 colon): > 100 µM
- TGI (A498 renal): > 100 µM
- TGI (SNB-78 CNS): > 100 µM
- TGI (SK-MEL-28 melanoma): > 100 µM
- TGI (SN12K1 renal): > 100 µM
- TGI (LOX IMVI melanoma): > 100 µM
- TGI (OVCAR-4 ovarian): > 100 µM
- TGI (M19-MEL melanoma): > 100 µM
- TGI (DLD-1 colon): > 100 µM
- TGI (CAKI-1 renal): > 100 µM
- TGI (SF-268 CNS): > 100 µM
- TGI (XF 498 CNS): > 100 µM
- TGI (HL-60(TB) leukemia): > 100 µM
- TGI (SK-OV-3 ovarian): > 100 µM
- TGI (DMS 273 small cell lung): > 100 µM
- TGI (UACC-62 melanoma): > 100 µM
- TGI (SNB-19 CNS): > 100 µM
- TGI (HOP-62 NSCLC): > 100 µM
- TGI (P388/ADR leukemia): > 100 µM
- TGI (SK-MEL-5 melanoma): > 100 µM
- TGI (EKVX NSCLC): > 100 µM
- TGI (IGROV1 ovarian): > 100 µM
- TGI (SK-MEL-2 melanoma): > 100 µM
- TGI (MALME-3M melanoma): > 100 µM
- TGI (RXF 393 renal): > 100 µM
- TGI (NCI-H23 lung): > 100 µM
- TGI (RPMI-8226 leukemia): > 100 µM
- TGI (NCI-H460 lung): > 100 µM
- TGI (HT29 colon): > 100 µM
- TGI (NCI-H226 lung): > 100 µM
- TGI (HOP-92 NSCLC): > 100 µM
- TGI (HCT-15 colon): > 100 µM
- TGI (SN12C renal): > 100 µM
- TGI (DMS 114 small cell lung): > 100 µM
- TGI (U251 CNS): > 100 µM
- TGI (SF-295 CNS): > 100 µM
- TGI (A549 NSCLC): > 100 µM
- TGI (NCI/ADR-RES ovarian): > 100 µM
- TGI (NCI-H522 lung): > 100 µM
- TGI (SF-539 CNS): > 100 µM
- TGI (COLO 205 colon): > 100 µM
- TGI (KM20L2 colon): > 100 µM
- TGI (SW-620 colon): > 100 µM
- TGI (OVCAR-8 ovarian): > 100 µM
- TGI (HCC-2998 colon): > 100 µM
- TGI (UACC-257 melanoma): > 100 µM
- TGI (KM12 colon): > 100 µM
- TGI (HOP-18 NSCLC): > 100 µM
